The values that follow come from patent EP1981504B1, “THIADIAZOLE DERIVATIVES FOR THE TREATMENT OF NEURO DEGENERATIVE DISEASES” (NV reMYND, priority 2006, dated 2007).

Broadly, the EC50 is the concentration needed to bring the measured effect to its halfway point. Low values mean a more potent agent, high ones a less potent agent.

Each structure is given as a SMILES string. Converted amounts (≈) assume the structure as drawn.

In this assay the test system is M17-SYNwt cells. Kind of assay: α-synuclein cytotoxicity assay (LDH leakage from paraquat-treated α-synuclein over-expressing neuroblastoma cells). Type of assay: cell-based, human. The conditions noted are these: paraquat 32 mM, 40 hours, LDH release; for EC50: Homo sapiens, Neuroblastoma cell, 10 point curves in duplicate; for %I: percent inhibition of synuclein cytotoxicity at most effective concentration of test compound, relative to untreated paraquat cells. In a few lines:
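M17 neuroblastoma cells over-expressing wild-type α-synuclein were challenged with paraquat, and cytotoxicity was read as LDH release. Protection was expressed as percent reduction of paraquat-induced LDH release relative to untreated paraquat cells and control cells. Actives were retested in 10-point duplicate dose responses.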
(LDH leaks from cells whose membrane has failed.)

As to `O=C(CCc1ccccc1)N1CCN(c2nc(Cc3ccc(F)cc3)ns2)CC1` [Compound 90, 1-(3-phenylpropanoyl)-4-[3-(4-fluorobenzyl)-1,2,4-thiadiazol-5-yl]piperazine], the EC50 worked out at 1.41 µg/mL (≈ 3.43 µM) and the “%I” value came to 73%. The matching figures for `Cc1ccc(Cc2nsc(N3CCN(C/C=C/c4ccccc4)CC3)n2)cc1` [Compound 91, 1-[3-phenylprop-2-enyl]-4-[3-(4-methylbenzyl)-1,2,4-thiadiazol-5-yl]piperazine]: 0.71 µg/mL (≈ 1.82 µM) and 90%.

As to `Clc1ccc(Cc2nsc(N3CCN(C/C=C/c4ccccc4)CC3)n2)cc1` [Compound 92, 1-[3-phenylprop-2-enyl]-4-[3-(4-chlorobenzyl)-1,2,4-thiadiazol-5-yl]piperazine], the midpoint of the response, the EC50, lay at 0.75 µg/mL (≈ 1.82 µM) and the “%I” value is listed as 69%. On to `Fc1ccc(Cc2nsc(N3CCN(C/C=C/c4ccccc4)CC3)n2)cc1` [Compound 93, 1-[3-phenylprop-2-enyl]-4-[3-(4-fluorobenzyl)-1,2,4-thiadiazol-5-yl]piperazine], for which the EC50 amounted to 1.99 µg/mL (≈ 5.04 µM) and the “%I” value is given as 91%. As for `CCCCCc1ccc(C(=O)NCCN2CCN(c3nc(Cc4ccc(F)cc4)ns3)CC2)cc1` [Compound 94, 4-pentyl-N-{2-[4-[3-(4-fluorobenzyl)-1,2,4-thiadiazol-5-yl]piperazin-1-yl]ethyl}benzamide], the EC50 was 0.35 µg/mL (≈ 0.706 µM) and the “%I” value is on record as 90%. The like results for `CCCCc1ccc(C(=O)NCCN2CCN(c3nc(Cc4ccc(F)cc4)ns3)CC2)cc1` [Compound 95, 4-butyl-N-{2-[4-[3-(4-fluorobenzyl)-1,2,4-thiadiazol-5-yl]piperazin-1-yl]ethyl}benzamide] were, in that order, 0.38 µg/mL (≈ 0.789 µM) and 78%. The like results for `CCCCCCc1ccc(C(=O)NCCN2CCN(c3nc(Cc4ccc(F)cc4)ns3)CC2)cc1` [Compound 96, 4-hexyl-N-{2-[4-[3-(4-fluorobenzyl)-1,2,4-thiadiazol-5-yl]piperazin-1-yl]ethyl}benzamide] were, in that order, 0.8 µg/mL (≈ 1.57 µM) and 72%. As to `O=C(NCCN1CCN(c2nc(Cc3ccc(F)cc3)ns2)CC1)c1ccc(Cl)cc1` [Compound 97, 4-chloro-N-{2-[4-[3-(4-fluorobenzyl)-1,2,4-thiadiazol-5-yl]piperazin-1-yl]ethyl}benzamide], the EC50 worked out at 1.29 µg/mL (≈ 2.8 µM) and the “%I” value was 68%. Consider `O=C(NCCN1CCN(c2nc(Cc3ccc(F)cc3)ns2)CC1)c1cc(Cl)cc(Cl)c1` [Compound 98, 3,5-dichloro-N-{2-[4-[3-(4-fluorobenzyl)-1,2,4-thiadiazol-5-yl]piperazin-1-yl]ethyl}benzamide], for which the EC50 worked out at 1.42 µg/mL (≈ 2.87 µM) and the “%I” value is listed as 102%. The like results for `Cc1ccccc1C(=O)NCCN1CCN(c2nc(Cc3ccc(F)cc3)ns2)CC1` [Compound 99, 2-methyl-N-{2-[4-[3-(4-fluorobenzyl)-1,2,4-thiadiazol-5-yl]piperazin-1-yl]ethyl}benzamide] were, in that order, 1.58 µg/mL (≈ 3.59 µM) and 97%. The matching figures for `O=C(NCCN1CCN(c2nc(Cc3ccc(Cl)cc3)ns2)CC1)c1cccc(F)c1` [Compound 100, 3-fluoro-N-(2-[4-[3-(4-chlorobenzyl)-1,2,4-thiadiazof-5-yl]piperazin-1-yl]ethyl)benzamide]: 1.79 µg/mL (≈ 3.89 µM) and 75%.

Turning to `Cc1ccc(C(=O)NCCN2CCN(c3nc(Cc4ccc(F)cc4)ns3)CC2)cc1` [Compound 101, 4-methyl-N-{2-[4-[3-(4-fluorobenzyl)-1,2,4-thiadiazol-5-yl]piperazin-1-yl]ethyl}benzamide], the EC50 was determined as 1.94 µg/mL (≈ 4.41 µM) and the “%I” value came to 68%. The matching figures for `O=C(NCCN1CCN(c2nc(Cc3ccc(F)cc3)ns2)CC1)c1ccc(F)cc1` [Compound 102, 4-fluoro-N-{2-[4-[3-(4-fluorobenzyl)-1,2,4-thiadiazol-5-yl]piperazin-1-yl]ethyl}benzamide]: 1.99 µg/mL (≈ 4.49 µM) and 80%. The matching figures for `CCc1ccc(C(=O)NCCN2CCN(c3nc(Cc4ccc(F)cc4)ns3)CC2)cc1` [Compound 103, 4-ethyl-N-{2-[4-[3-(4-fluorobenzyl)-1,2,4-thiadiazol-5-yl]piperazin-1-yl]ethyl}benzamide]: 2.32 µg/mL (≈ 5.11 µM) and 139%. The matching figures for `O=C(NCCN1CCN(c2nc(Cc3ccc(F)cc3)ns2)CC1)c1ccccc1` [Compound 104, N-{2-[4-[3-(4-fluorobenzyl)-1,2,4-thiadiazol-5-yl]piperazin-1-yl]ethyl}benzamide]: 3.82 µg/mL (≈ 8.98 µM) and 65%. Regarding `O=C(NCCN1CCN(c2nc(Cc3ccc(F)cc3)ns2)CC1)c1cccc(F)c1` [Compound 105, 3-fluoro-N-{2-[4-[3-(4-fluorobenzyl)-1,2,4-thiadiazol-5-yl]piperazin-1-yl]ethyl}benzamide], the “%I” value is given as 115%. On to `O=C(NCCN1CCN(c2nc(Cc3ccccc3)ns2)CC1)c1cccc(F)c1` [Compound 106, 3-fluoro-N-{2-[4-[3-benzyl-1,2,4-thiadiazol-5-yl]piperazin-1-yl]ethyl}benzamide], for which the “%I” value is reported as 49%. As for `O=C(Cc1ccc(F)cc1)NCCN1CCN(c2nc(Cc3ccc(F)cc3)ns2)CC1` [Compound 107, 2-(4-fluorophenyl)-N-{2-[4-[3-(4-fluorobenzyl)-1,2,4-thiadiazol-5-yl]piperazin-1-yl]ethyl}acetamide], a half-maximal response (EC50) required 0.26 µg/mL (≈ 0.568 µM) and the “%I” value came to 80%.

Consider `O=C(Cc1ccccc1)NCCN1CCN(c2nc(Cc3ccc(F)cc3)ns2)CC1` [Compound 108, 2-phenyl-N-{2-[4-[3-(4-fluorobenzyl)-1,2,4-thiadiazol-5-yl]piperazin-1-yl]ethyl}acetamide], for which the EC50 was determined as 2.06 µg/mL (≈ 4.69 µM) and the “%I” value is listed as 63%. Regarding `Cc1ccc(Cc2nsc(N3CCN(CCNC(=O)Cc4ccc(F)cc4)CC3)n2)cc1` [Compound 109, 2-(4-fluorophenyl)-N-{2-[4-[3-(4-methylbenzyl)-1,2,4-thiadiazol-5-yl]piperazin-1-yl]ethyl}acetamide], a half-maximal effect (EC50) was put at 3.52 µg/mL (≈ 7.76 µM) and the “%I” value is listed as 93%. For the compound `O=C(NCCN1CCN(c2nc(Cc3ccc(F)cc3)ns2)CC1)NCc1ccccc1` [Compound 110, N-benzyl-N'-{2-[4-[3-(4-fluorobenzyl)-1,2,4-thiadiazol-5-yl]piperazin-1-yl]ethyl}urea], the “%I” value worked out at 77%.

Regarding `Fc1ccc(Cc2nsc(N3CCN(Cc4ccccc4)CC3)n2)cc1` [Compound 113, 1-benzyl-4-[3-(4-fluorobenzyl)-1,2,4-thiadiazol-5-yl]piperazine], the EC50 worked out at 1.54 µg/mL (≈ 4.18 µM) and the “%I” value turned out to be 65%. With `Fc1ccc(Cc2nsc(N3CCN(Cc4ccc5c(c4)OCO5)CC3)n2)cc1` [Compound 114, 1-(1,3-benzodioxol-5-ylmethyl)-4-[3-(4-fluorobenzyl)-1,2,4-thiadiazol-5-yl]piperazine], the “%I” value is on record as 86%. As to `COc1cccc(Cc2nsc(N3CCN(C(=O)c4ccccc4F)C(C)C3)n2)c1` (centres unmarked) [Compound 115, 1-(2-fluorobenzoyl)-4-[3-(3-methoxybenzyl)-1,2,4-thiadiazol-5-yl]-2-methylpiperazine], the EC50 was determined as 0.0361 µg/mL (≈ 0.0846 µM) and the “%I” value is 75%. With `CCc1ccc(C(=O)N2CCN(c3nc(Cc4ccc(F)cc4)ns3)CC2C)cc1` (centres unmarked) [Compound 116, 1-(4-ethylbenzoyl)-4-[3-(4-fluorobenzyl)-1,2,4-thiadiazol-5-yl]-2-methylpiperazine], the response was half-maximal at 0.0522 µg/mL (≈ 0.123 µM) (EC50) and the “%I” value is reported as 71%. Turning to `CCCCc1ccc(C(=O)N2CCN(c3nc(Cc4ccc(C)cc4)ns3)CC2C)cc1` (centres unmarked) [Compound 117, 1-(4-butylbenzoyl)-4-[3-(4-methylbenzyl)-1,2,4-thiadiazol-5-yl]-2-methylpiperazine], the response was half-maximal at 0.0841 µg/mL (≈ 0.187 µM) (EC50) and the “%I” value was determined as 82%. The like results for `COc1ccc(C(=O)N2CCN(c3nc(Cc4ccc(F)cc4)ns3)CC2C)cc1` (centres unmarked) [Compound 118, 1-(4-methoxybenzoyl)-4-[3-(4-fluorobenzyl)-1,2,4-thiadiazol-5-yl]-2-methylpiperazine] were, in that order, 0.0911 µg/mL (≈ 0.214 µM) and 64%. `COc1cccc(Cc2nsc(N3CCN(C(=O)c4ccc5c(c4)OCO5)C(C)C3)n2)c1` (centres unmarked) [Compound 119, 1-(1,3-benzodioxol-5-ylcarbonyl)-4-[3-(3-methoxybenzyl)-1,2,4-thiadiazol-5-yl]-2-methylpiperazine]: the midpoint of the response, the EC50, lay at 0.095 µg/mL (≈ 0.21 µM) and the “%I” value was 72%.

`CCCCc1ccc(C(=O)N2CCN(c3nc(Cc4ccc(F)cc4)ns3)CC2C)cc1` (centres unmarked) [Compound 120, 1-(4-butylbenzoyl)-4-[3-(4-fluorobenzyl)-1,2,4-thiadiazol-5-yl]-2-methylpiperazine]: the response was half-maximal at 0.0987 µg/mL (≈ 0.218 µM) (EC50) and the “%I” value amounted to 120%. The like results for `CCCCCCc1ccc(C(=O)N2CCN(c3nc(Cc4ccc(F)cc4)ns3)CC2)cc1` [Compound 121, 1-(4-hexylbenzoyl)-4-[3-(4-fluorobenzyl)-1,2,4-thiadiazol-5-yl]piperazine] were, in that order, 0.12 µg/mL (≈ 0.257 µM) and 64%. Regarding `CC1CN(c2nc(Cc3ccc(F)cc3)ns2)CCN1C(=O)c1cccc(Cl)c1` (centres unmarked) [Compound 122, 1-(3-chlorobenzoyl)-4-[3-(4-fluorobenzyl)-1,2,4-thiadiazol-5-yl]-2-methylpiperazine], the EC50 stood at 0.14 µg/mL (≈ 0.325 µM) and the “%I” value was determined as 92%. `COc1cccc(Cc2nsc(N3CCN(C(=O)c4ccc(F)cc4)C(C)C3)n2)c1` (centres unmarked) [Compound 123, 1-(4-fluorobenzoyl)-4-[3-(3-methoxybenzyl)-1,2,4-thiadiazol-5-yl]-2-methylpiperazine]: the EC50 was found to be 0.14 µg/mL (≈ 0.328 µM) and the “%I” value came out at 95%. The like results for `COc1cccc(Cc2nsc(N3CCN(C(=O)c4ccc(C)cc4)C(C)C3)n2)c1` (centres unmarked) [Compound 124, 1-(4-methylbenzoyl)-4-[3-(3-methoxybenzyl)-1,2,4-thiadiazol-5-yl]-2-methylpiperazine] were, in that order, 0.14 µg/mL (≈ 0.331 µM) and 57%.
